Results reported in PMC5669199, “CM352 Reduces Brain Damage and Improves Functional Recovery in a Rat Model of Intracerebral Hemorrhage” (Journal of the American Heart Association: Cardiovascular …, 2017).

Assays:
Plasma protein binding = assay type: in vitro ADME; details: rat, read-out: Plasma prot binding (% unbound)
[1] = tested on: tissue‐type plasminogen activator–induced fibrinolysis in rat whole blood; assay: Whole blood clot formation and lysis assay (ROTEM thromboelastometry), rat blood; assay type: biochemical
Method: Citrated blood samples from (n=4) rats (Sprague Dawley) and (n=16) mice ([…], Harlan Iberica) were assayed with a ROTEM analyzer (Pentapharm GmbH, Munich, Germany) as previously described.20 In a prewarmed cuvette and holder we pipetted 1 μL tissue-type plasminogen activator (150 000 U/mL), 20 μL Start-tem reagent (Pentapharm GmbH), 20 μL In-tem reagent (Pentapharm GmbH), 3 μL DMSO (SIGMA) or test compounds in DMSO, and 300 μL prewarmed citrated blood. The cup holder containing the sample mixture was placed immediately on the appropriate channel. Measurements were recorded for 60 minutes to allow clot formation and lysis, and results are expressed as effective concentration to delay lysis time by 50%.

interleukin‐6 = assay: Plasma interleukin‐6 ELISA after ICH; assay type: in vivo, rat; details: 1 mg/kg iv 1 hour after collagenase; 3 hours, P<0.05 vs control
Method: (§1) Blood samples (0.5 mL) were drawn from the tail vein before surgery, immediately after surgery, and at 1 hour, 3 hours, 24 hours, and 14 days. Citrate or EDTA plasma was obtained by centrifugation, and samples were stored at −80°C. Enzyme‐linked immunosorbent assay was used to measure interleukin‐6 (IL‐6, ref. KRC0061, Life Technologies, Thermo Fisher Scientific, Waltham, MA), cellular fibronectin (ref. MBS007311, MyBioSource, San Diego, CA), and thrombin‐antithrombin complex (Enzygnost TAT, ref. OWMG15, Siemens Healthcare, Erlangen, Germany) in plasma, as biomarkers of inflammation, cellular damage, and hypercoagulability, respectively. The intra‐assay and interassay coefficients of variation for all molecular markers were <10%.

[2] = tested on: thrombin‐antithrombin complex; assay: Plasma thrombin‐antithrombin complex ELISA after ICH; assay type: in vivo, rat; details: 1 mg/kg iv after ICH; data not shown
Method: as §1

[3] = tested on: apoptotic cells in perihematomal area; assay: TUNEL analysis of apoptotic cells in perihematomal area; assay type: in vivo, rat; details: 14 days after ICH, n=3
Method: After the completion of the neuroimaging study, 14 days after ICH, animals were euthanized by an overdose of anesthetic (sevoflurane 8%) and perfused with PBS and 4% formaldehyde. The brain was removed, axially sliced (2 mm thick), fixed in 4% formaldehyde (4 hours), transferred to 20% sucrose in PBS (4°C), included in optimal cutting temperature compound (Sakura Finetek, Torrance, CA), and stored at −80°C. Slices were cut into 8‐μm‐thick slices using a cryostat (Sakura Finetek Europe BV, Leiden, The Netherlands).
Brain slices were dried at 38°C for 3 hours, and the optimal cutting temperature compound was then removed by washing the slices twice in PBS. Antigen retrieval was performed by immersion of slices in a thermal bath of citrate buffer (pH 6.0) for 20 minutes at 99°C. To detect apoptotic cells, a terminal deoxynucleotidyl transferase dUTP nick end labeling assay was performed. […] Slices were mounted (Polysciences, Eppelheim, Germany) and photographed in a Leica DMI 6000 B microscope with Leica Application Suite Advance Fluorescence software, version 1.0.0 (LAS AF; Leica Microsystems, Wetzlar, Germany).
A quantitative analysis of terminal deoxynucleotidyl transferase dUTP nick end labeling was performed using 3 animals from each group. […] Positive nuclei were counted manually.

[4] = Prothrombin time in plasma after ICH; assay type: in vivo, rat; details: percentage of the standard value, n=3
Method: (§2) Prothrombin time (PT) and activated partial thromboplastin time (aPTT) were measured with STA‐Neoplastin R and PTT reagents (STA‐Compact, Stago, Barcelona, Spain). PT results were expressed as percentage of the standard value, and aPTT results were expressed in seconds.

[5] = Activated partial thromboplastin time in plasma after ICH; assay type: in vivo, rat; details: n=3
Method: as §2

## CNC(=O)c1ccc(Oc2ccc(S(=O)(=O)[C@]3(C(=O)NO)CCC4(CCNCC4)C3)cc2)cc1 [CM352, 4‐[4‐[[(3R)‐3‐(Hydroxycarbamoyl)‐8‐azaspiro[4.5]decan‐3‐yl]sulfonyl]phenoxy]‐N‐methylbenzamide]
Plasma protein binding
  fraction unbound: 0.4
[1]; rat whole blood, tPA‐induced fibrinolysis, ROTEM, read-out: effective concentration to delay lysis time by 50%
  EC50: 3.7 µM
[1]; thromboelastometry assay, whole blood
  coagulation activation and clot firmness: without changes in coagulation activation and clot firmness
interleukin‐6
  circulating IL‐6 levels: significant reduction
[2]
  thrombin‐antithrombin complex levels versus control: no differences
[3]
  apoptosis (TUNEL‐positive cells) in the perihematomal area versus control: No effects on apoptosis
[4]; 3 H
  PT: 62.0±2.6%
[4]; 5 H
  PT: 63.7±4.0%
[4]; 24 H
  PT: 65.1±7.6%
[4]; Basal
  PT: 62.7±5.1%
[5]; 3 H
  aPTT: 21.7 ± 4.5 s
[5]; 5 H
  aPTT: 21.7 ± 4.0 s
[5]; 24 H
  aPTT: 21.7 ± 2.5 s
[5]; Basal
  aPTT: 21.0 ± 4.0 s
